Assays:
RARs = experiment: Binding to RARs (stated over all three subtypes); details: range over RARα, RARβ and RARγ
From the text: Prostate cancer is one of the most common cancers in European and American males and has a high mortality rate (Landis et al, 1998; Rosenthal, 1998). Early disease is managed conservatively in Europe although in selected patients surgery is curative. In advanced disease, androgen ablation can produce symptomatic improvement, but the tumour often re-emerges in an androgen- independent and incurable form. One proposed treatment for androgen-independent prostate carcinoma is differentiation ther- apy, in which agents such as all-trans-retinoic acid (ATRA), 9-cis- retinoic acid and 1, 25-dihydroxyvitamin D3 (D3 ) are used to induce growth arrest, differentiation and sometimes apoptosis of the tumour cells (Liang et al, 1999; de Vos et al, 1997; Skowronski et al, 1994; Hedlund et al, 1997). ATRA and synthetic analogues exert their biological effects by binding to two families of retinoid receptors, […]. These are ligand-dependent transcription factors of the steroid/thyroid hormone nuclear receptor superfamily (Chambon 1994; Boehm et al, 1995). Activated RARs bind to retinoic acid-responsive elements (RAREs) in the promoters of genes and thus regulate gene expression. They also antagonize the activity of the tran- scription factor AP1 and thereby down-regulate the expression of some AP1-activated genes (Nagpal et al, 1995). […]

LNCaP ITS+ cells = experiment: Plate colony formation (clonal proliferation) assay, serum-free (ITS+)-grown LNCaP; type: cell-based, human
From the text: (§1) Prostate cancer is one of the most common cancers in European and American males and has a high mortality rate (Landis et al, 1998; Rosenthal, 1998). Early disease is managed conservatively in Europe although in selected patients surgery is curative. In advanced disease, androgen ablation can produce symptomatic improvement, but the tumour often re-emerges in an androgen- independent and incurable form. One proposed treatment for androgen-independent prostate carcinoma is differentiation ther- apy, in which agents such as all-trans-retinoic acid (ATRA), 9-cis- retinoic acid and 1, 25-dihydroxyvitamin D3 (D3 ) are used to induce growth arrest, differentiation and sometimes apoptosis of the tumour cells (Liang et al, 1999; de Vos et al, 1997; Skowronski et al, 1994; Hedlund et al, 1997). ATRA and synthetic analogues exert their biological effects by binding to two families of retinoid receptors, […]. These are ligand-dependent transcription factors of the steroid/thyroid hormone nuclear receptor superfamily (Chambon 1994; Boehm et al, 1995). Activated RARs bind to retinoic acid-responsive elements (RAREs) in the promoters of genes and thus regulate gene expression. They also antagonize the activity of the tran- scription factor AP1 and thereby down-regulate the expression of some AP1-activated genes (Nagpal et al, 1995). One approach to unravelling the contributions of RAR sub-types to these actions has been the development of synthetic retinoids with selective activities at individual RARs and RXRs. For example, the diaryl- acetylenic retinoids allow separation of transactivation and AP1 antagonism functions at RAR (Nagpal et al, 1995). Recently, compounds that are selective for particular RAR sub-types have been synthesized: these include both agonists and antagonists (Chandraratna, 1995; Teng et al, 1999; Johnson et al, 1999). The functional selectivity of these compounds may open the way to achieving differentiation or apoptosis of tumour cells with minimal systemic side effects (Chandraratna, 1995). Cell lines that are commonly used in the evaluation of investiga- tional agents for prostate cancer include LNCaP, DU-145 and PC- 3. […] These lines are relatively insensitive to growth inhibition and induction of apoptosis by ATRA and by synthetic agonists. […] Fenretinide (4HPR) induces apoptosis of LNCaP and of PC-3 cells at 1-5 M and 25 µM, respectively (Pienta et al, 1993; Heish and Wu, 1997). Pfahl and colleagues examined the growth inhibitory effects of a panel of receptor-selective retinoids against DU145 and PC-3 cells and achieved complete growth inhibition and induction of apoptosis between 1 M and 10 M (Lu et al, 1999). […] Antagonists of retinoic acid receptors (RARs) are potent growth inhibitors of prostate carcinoma cells LA Hammond1 , CH Van Krinks2 , J Durham2 , SE Tomkins2 , RD Burnett3 , EL Jones1 , RAS Chandraratna3 and G Brown2 Divisions of 1 Cancer Studies and of 2 Immunity and Infection, University of Birmingham Medical School, Edgbaston, Birmingham B15 2TT, UK and 3 Retinoid Research, Allergan Inc., Irvine, California, USA Summary Novel synthetic antagonists of retinoic acid receptors (RARs) have been developed. To avoid interference by serum retinoids when testing these compounds, we established serum-free grown sub-lines (>3 years) of the prostate carcinoma lines LNCaP, PC3 and DU145. […] A component(s) of serum and of LNCaP-conditioned medium diminishes the activity of antagonists: this factor is not the most likely candidates IGF-1 and EGF. In vitro studies of RAR antagonists together with data from RAR-null mice lead to the hypothesis that RAR-regulated gene transcription is necessary for the survival and maintenance of prostate epithelium. […]

RARβ = molecular target: T1, RARβ (Homo sapiens, UniProt P10826); experiment: Binding to baculovirus-expressed RARβ; set-up: made in house; details: baculovirus-expressed receptor
T1 sequence (P10826 1-455): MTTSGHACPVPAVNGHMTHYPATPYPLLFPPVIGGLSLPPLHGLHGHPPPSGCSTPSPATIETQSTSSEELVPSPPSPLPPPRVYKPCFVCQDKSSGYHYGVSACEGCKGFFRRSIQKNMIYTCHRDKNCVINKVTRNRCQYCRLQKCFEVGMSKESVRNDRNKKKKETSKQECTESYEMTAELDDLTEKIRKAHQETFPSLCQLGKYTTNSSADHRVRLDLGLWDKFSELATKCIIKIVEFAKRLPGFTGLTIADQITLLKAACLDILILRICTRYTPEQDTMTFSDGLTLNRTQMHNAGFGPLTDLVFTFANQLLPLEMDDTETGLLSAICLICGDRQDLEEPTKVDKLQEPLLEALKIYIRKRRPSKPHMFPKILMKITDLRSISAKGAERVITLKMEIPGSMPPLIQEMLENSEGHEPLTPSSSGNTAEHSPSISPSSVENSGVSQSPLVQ
From the text: as §1

DU145 ITS+ cells = experiment: Plate colony formation assay, serum-free (ITS+)-grown DU145; type: cell-based, human; details: 14 days
From the text: Prostate cancer is one of the most common cancers in European and American males and has a high mortality rate (Landis et al, 1998; Rosenthal, 1998). Early disease is managed conservatively in Europe although in selected patients surgery is curative. In advanced disease, androgen ablation can produce symptomatic improvement, but the tumour often re-emerges in an androgen- independent and incurable form. One proposed treatment for androgen-independent prostate carcinoma is differentiation ther- apy, in which agents such as all-trans-retinoic acid (ATRA), 9-cis- retinoic acid and 1, 25-dihydroxyvitamin D3 (D3 ) are used to induce growth arrest, differentiation and sometimes apoptosis of the tumour cells (Liang et al, 1999; de Vos et al, 1997; Skowronski et al, 1994; Hedlund et al, 1997). ATRA and synthetic analogues exert their biological effects by binding to two families of retinoid receptors, the RARs (RAR, RAR and RAR) and the RXRs (RXR, RXR and RXR). These are ligand-dependent transcription factors of the steroid/thyroid hormone nuclear receptor superfamily (Chambon 1994; Boehm et al, 1995). Activated RARs bind to retinoic acid-responsive elements (RAREs) in the promoters of genes and thus regulate gene expression. They also antagonize the activity of the tran- scription factor AP1 and thereby down-regulate the expression of some AP1-activated genes (Nagpal et al, 1995). One approach to unravelling the contributions of RAR sub-types to these actions has been the development of synthetic retinoids with selective activities at individual RARs and RXRs. For example, the diaryl- acetylenic retinoids allow separation of transactivation and AP1 antagonism functions at RAR (Nagpal et al, 1995). Recently, compounds that are selective for particular RAR sub-types have been synthesized: these include both agonists and antagonists (Chandraratna, 1995; Teng et al, 1999; Johnson et al, 1999). The functional selectivity of these compounds may open the way to achieving differentiation or apoptosis of tumour cells with minimal systemic side effects (Chandraratna, 1995). […]

CCc1ccc(C2=CC(C)(C)Sc3ccc(C#Cc4ccc(C(=O)O)cc4)cc32)cc1 [AGN194310]
Kd (RARs): 2 to 5 nM
growth inhibitory effect in combination with TTNPB (LNCaP ITS+ cells; 50 nM AGN194310 together with 100 nM TTNPB): almost complete reversal
colony formation (% of control values) (LNCaP ITS+ cells; 50 nM alone (Figure 3)): 41%
colony formation (% of control values) (LNCaP ITS+ cells; 100 nM AGN194310 together with 100 nM TTNPB): 40%
colony formation (% of control values) (LNCaP ITS+ cells; 100 nM alone (Figure 3)): 14%
colony formation (% of control) (LNCaP ITS+ cells; 100 nM, ITS+ cells plated in ITS+ medium (Figure 5A)): < 1%
growth inhibitory activity in LNCaP-conditioned medium (LNCaP ITS+ cells; 100 nM, LNCaP ITS+ cells plated in LNCaP-conditioned medium): abrogated
inhibition of colony formation (LNCaP ITS+ cells; 100 nM, with EGF at 1, 10 and 20 ng/ml): > 95%
IC50 (LNCaP ITS+ cells; LNCaP, serum-free (ITS+), 14 days): 16 nM
concentration required to attain maximum growth inhibition (LNCaP ITS+ cells; colony assay): 100 nM
Kd (RARβ): 2 nM
IC50 (DU145 ITS+ cells): 34 nM

From publication PMC2364081, “Antagonists of retinoic acid receptors (RARs) are potent growth inhibitors of prostate carcinoma cells” (British Journal of Cancer, 2001)
